The test system of test [1] is primary T cells transfected with CDA-BFP mRNA. Put plainly: Viability by flow cytometry of primary T cells transfected with CDA-BFP mRNA, in presence of prodrug. It counts as cell-based, human. The conditions noted are these: increasing concentration (0 to 10 mM) for 48H; FIG. 1. From the text: FIG. 1: Analysis by FACS for BFP expression in T cells render hypersensitive to the prodrugs 5fdC and 5HmdC after CDA expression. mRNA encoding a chimeric construction consisting of CDA fused to a BFP reporter. A) Viability rate expressed in percentage: comparison between mock (T cells not transfected by the CDA expression plasmid)—represented in the graph by unfilled bar- and transfected T cells by the CDA expression plasmid—represented in the graph by filled bar-, when all cells are submitted to an increasing dose of the 5fdC prodrug (from 0 to 10 mM); B) The same than for A) excepted that the cells are submitted to an increasing dose of the 5HmdC prodrug (from 0 to 10 mM). […]
To test the ability of CDA expression to endow primary T cell with hypersensitivity to hypomethylated agents 5hmdC and 5FdC, primary T cells were transfected with 40 μg of mRNA encoding a chimeric construction consisting of CDA fused to a BFP reported via a 2A self-cleaving peptide (SEQ ID NO. 9). One day post transfection, cells were recovered and analyzed by flow cytometry for BFP expression.
Transfected cells were incubated in the presence of increasing concentration of 5hmdC or 5FdC for 48H. At the end of incubation, cell viability was determined by flow cytometry. […]

Test [2] has as its system dCK KO T cells expressing CDA-BFP. Put plainly: Viability by flow cytometry of dCK KO T cells transfected with CDA-BFP mRNA, in presence of prodrug. The class given is cell-based, human. The conditions noted are these: increasing concentration (0 to 10 mM) for 48H; FIG. 2. The procedure: FIG. 2: Analysis by FACS for BFP expression in T cells render hypersensitive to the prodrugs 5fdC and 5HmdC by combining CDA expression and inactivation of dCK gene by KO. mRNA encoding a chimeric construction consisting of CDA fused to a BFP reporter, and a KO inactivation of dCK is made by using TALE-nuclease as explained later. […]
To further investigate the ability of T cells to be sensitive to 5fdC, IC50 for this prodrug was determined on dCK KO and WT T cells. […] At the end of 5fdC incubation, viability of T cells was determined by FACS analysis.
FIG. 2 presents the results to show whether primary T cells having undergone dCK KO can still endow resistance to purine nucleotide analogues as well as with hypersensitivity toward 5hmDC and SFDC. One day post transfection, dCK KO T cells were recovered and analyzed by flow cytometry for BFP expression. […] As described earlier, transfected cells were incubated in the presence of increasing concentration of 5hmdC or 5FdC for 48H and at the end of incubation, cell viability was determined by flow cytometry.
A general note: Flow cytometry measures light scatter and fluorescence of single cells or particles in a stream.

Entries after “also recorded” stand apart in the source; their conditions may differ.

Take `Nc1nc(=O)n([C@H]2C[C@H](O)[C@@H](CO)O2)cc1C=O` [5FdC, 5-formyl-2′-deoxycytidine]: the “sensitivity (cell viability) of CDA-transfected T cells with respect to wild type cells” value in test [1] is “increase of sensitivity”. For the same molecule, the “prodrug hypersensitivity (cell viability) of dCK KO T cells transfected with CDA-BFP” value in test [2] was “increase of specific prodrug hypersensitivity; also recorded: hypersensitive”.

Consider `Nc1nc(=O)n([C@H]2C[C@H](O)[C@@H](CO)O2)cc1CO` [5hmdC, 5-hydroxymethyl-2′-deoxycytidine], for which the “sensitivity (cell viability) of CDA-transfected T cells with respect to wild type cells” value in test [1] is “increase of sensitivity”. For the same molecule, the “prodrug hypersensitivity (cell viability) of dCK KO T cells transfected with CDA-BFP” value in test [2] is “increase of specific prodrug hypersensitivity; also recorded: hypersensitive”.
